Experimental data from US8691804B2 (Evotec AG, priority 2008, dated 2014).

Molecular target: T1, human H3 receptors (Homo sapiens, UniProt Q9Y5N1)
T1 construct: host or cells: CHO-K1
Assay: cAMP quantification assay for human H3 receptor testing
Format: cell-based
Settings: CHO-K1 cells expressing human H3 receptors; inhibition of agonist-induced decrease of cAMP; 100 nM histamine, 10 μM forskolin; read-out: Potency range (IC50 values)
Description: CHO—K1 cell line expressing human H3 receptors were purchased from Euroscreen (Gosselies, Belgium, Cat. no.: ES-392-C)
Human H3 receptor-expressing cell-lines were grown in Ham's F12 [Sigma, Cat. no. N6658], supplemented with 10% FBS [Sigma, Cat. no. F9665], 400 μg/ml G418 [Sigma, Cat. no. N1876] and 250 μg/ml Zeocin [Invitrogen, Cat. no. 46-0509]) according to the protocol provided by Euroscreen.
The assay measures the ability of test compounds to inhibit Histamine receptor agonist-induced decrease of intracellular free cAMP (receptor is Gi coupled).
Specifically, a cAMP quantification assay system from DiscoveRx (cAMP XS+; Cat. no. 90-0075) was used.
For the cAMP assay, confluent cells were detached from the culture vessels with 1× trypsin-EDTA solution (Sigma), and seeded into 384-well Costar plates (white, clear bottom, Cat. no. 3707) at a density of 10,000 cells per well. Cells were seeded in a volume of 50 μl in medium without antibiotics and incubated overnight in a humidified atmosphere with 5% CO2 at 37° C. The cAMP assay was performed according to the protocol provided by DiscoveRx.
The cell culture medium was removed and the cells washed once with PBS (50 μl per well). The plates were emptied by inversion and 7.5 μl/well of compound in PBS (containing 1 mM IBMX and 0.03% BSA) were added and incubated for 30 min at 37° C.
Subsequent 7.5 μl/well specific agonist solution was added and the plates for another 30 min incubated at 37° C.
hH3:100 nM histamine, 10 μM forskolin in PBS (containing 1 mM IBMX and 0.03% BSA)
After the incubation with the agonist, 5 μl/well cAMP XS antibody solution was added followed by 20 μl/well Gal/EII/Lysis (1:5:19)+ED (1:1). The plates were incubated for one hour at room temperature and afterwards 20 μl/well EA reagent was added. The luminescence was developed for approximately three hours at room temperature and the plates were read out using a ‘BMG Novostar’ plate reader.
Test compounds were assayed at 8 concentrations in triplicate. Serial 10-fold dilutions in 100% DMSO were made at a 100-times higher concentration than the final concentration and then diluted with a 2 step protocol in assay buffer to reach the required assay concentrations and 1% DMSO. […]

T1 sequence (Q9Y5N1 whole entry): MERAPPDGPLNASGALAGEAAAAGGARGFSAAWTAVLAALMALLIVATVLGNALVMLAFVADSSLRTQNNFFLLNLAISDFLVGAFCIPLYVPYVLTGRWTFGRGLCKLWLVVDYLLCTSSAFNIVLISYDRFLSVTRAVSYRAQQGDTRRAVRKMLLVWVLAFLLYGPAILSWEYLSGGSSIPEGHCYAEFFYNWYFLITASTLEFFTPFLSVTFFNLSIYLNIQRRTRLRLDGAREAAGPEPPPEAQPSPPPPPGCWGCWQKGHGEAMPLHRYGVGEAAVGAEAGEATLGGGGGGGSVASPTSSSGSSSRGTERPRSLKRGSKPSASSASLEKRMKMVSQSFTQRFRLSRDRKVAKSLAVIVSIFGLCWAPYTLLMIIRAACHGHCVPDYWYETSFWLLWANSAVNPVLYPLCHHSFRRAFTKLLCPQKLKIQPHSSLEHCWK

Structure (SMILES) | IC50 [nM]
CCN1CCCN(C(=O)N2CC(Oc3ccc(C(C)(C)O)nc3)C2)CC1 [Example 157, 2-[5-({1-[(4-ethyl-1,4-diazepan-1-yl)carbonyl]azetidin-3-yl}oxy)pyridin-2-yl]propan-2-ol] | < 100
COc1cc(OC2CN(C(=O)N3CCCN(C4CCC4)CC3)C2)ccn1 [Example 56, 1-cyclobutyl-4-({3-[(2-methoxypyridin-4-yl)oxy]azetidin-1-yl}carbonyl)-1,4-diazepane] | < 100
O=C(Nc1ccc(Cl)cc1)C1CN(C(=O)N2CCCN(C3CCC3)CC2)C1 [Example 123, N-(4-chlorophenyl)-1-[(4-cyclobutyl-1,4-diazepan-1-yl)carbonyl]azetidine-3-carboxamide] | < 100
CC(=O)c1ccc(OC2CN(C(=O)N3CCCN(C4CCC4)CC3)C2)cn1 [Example 119, 1-[5-({1-[(4-cyclobutyl-1,4-diazepan-1-yl)carbonyl]azetidin-3-yl}oxy)pyridin-2-yl]ethanone] | < 100
CNC(=O)c1ccc(OC2CN(C(=O)N3CCCN(C4CCC4)CC3)C2)c(C)c1 [Example 34, 4-({1-[(4-cyclobutyl-1,4-diazepan-1-yl)carbonyl]azetidin-3-yl}oxy)-N,3-dimethylbenzamide] | < 100
O=C(NC1CCCCC1)C1CN(C(=O)N2CCCN(C3CCC3)CC2)C1 [Example 131, 1-[(4-cyclobutyl-1,4-diazepan-1-yl)carbonyl]-N-cyclohexylazetidine-3-carboxamide] | < 100
O=C(C1CN(C(=O)N2CCCN(C3CCC3)CC2)C1)N1CCC(F)(F)CC1 [Example 130, 1-cyclobutyl-4-({3-[(4,4-difluoropiperidin-1-yl)carbonyl]azetidin-1-yl}carbonyl)-1,4-diazepane] | < 100
CC(C)(O)c1cc(OC2CN(C(=O)N3CCCN(C4CCC4)CC3)C2)ccn1 [Example 53, 2-[4-({1-[(4-cyclobutyl-1,4-diazepan-1-yl)carbonyl]azetidin-3-yl}oxy)pyridin-2-yl]propan-2-ol] | < 100
O=C(N1CCCN(C2CCC2)CC1)N1CC(Oc2ccc(Cl)nc2)C1 [Example 46, 1-({3-[(6-chloropyridin-3-yl)oxy]azetidin-1-yl}carbonyl)-4-cyclobutyl-1,4-diazepane] | < 100
COc1cncc(OC2CN(C(=O)N3CCCN(C4CCC4)CC3)C2)c1 [Example 82, 1-cyclobutyl-4-({3-[(5-methoxypyridin-3-yl)oxy]azetidin-1-yl}carbonyl)-1,4-diazepane] | < 100
O=C(N1CCCN(C2CCC2)CC1)N1CC(Oc2ccc(Cn3cccn3)cn2)C1 [Example 17, 1-cyclobutyl-4-[(3-{[5-(1H-pyrazol-1-ylmethyl)pyridin-2-yl]oxy}azetidin-1-yl)carbonyl]-1,4-diazepane] | < 100
O=C(N1CCCN(C2CCC2)CC1)N1CC(Oc2ccc(Cl)c(Cl)c2)C1 [Example 23, 1-cyclobutyl-4-{[3-(3,4-dichlorophenoxy)azetidin-1-yl]carbonyl}-1,4-diazepane] | < 100
CCc1cc(OC2CN(C(=O)N3CCCN(C4CCC4)CC3)C2)ccn1 [Example 54, 1-cyclobutyl-4-({3-[(2-ethylpyridin-4-yl)oxy]azetidin-1-yl}carbonyl)-1,4-diazepane] | < 100
O=C(N1CCCN(C2CCC2)CC1)N1CC(Oc2ccc(-n3ccnc3)cc2)C1 [Example 26, 1-cyclobutyl-4-({3-[4-(1H-imidazol-1-yl)phenoxy]azetidin-1-yl}carbonyl)-1,4-diazepane] | < 100
CC(C)(CO)c1ccc(OC2CN(C(=O)N3CCCN(C4CCC4)CC3)C2)cn1 [Example 156, 2-[5-({1-[(4-cyclobutyl-1,4-diazepan-1-yl)carbonyl]azetidin-3-yl}oxy)pyridin-2-yl]-2-methylpropan-1-ol] | < 100
COc1cncc(OC2CN(C(=O)N3CCCN(C4CCC4)CC3)C2)n1 [Example 66, 1-cyclobutyl-4-({3-[(6-methoxypyrazin-2-yl)oxy]azetidin-1-yl}carbonyl)-1,4-diazepane] | < 100
O=C(N1CCCN(C2CCC2)CC1)N1CC(Oc2ccc(Cl)cc2F)C1 [Example 90, 1-{[3-(4-chloro-2-fluorophenoxy)azetidin-1-yl]carbonyl}-4-cyclobutyl-1,4-diazepane] | < 100
N#Cc1ccc(O[C@H]2C[C@@H](C(=O)N3CCCN(C4CCC4)CC3)C2)cc1 [Example 103, 4-({cis-3-[(4-cyclobutyl-1,4-diazepan-1-yl)carbonyl]cyclobutyl}oxy)benzonitrile] | < 100

Structure (SMILES) | IC50 [nM]
CNC(=O)c1ccc(OC2CN(C(=O)N3CCCN(C4CCC4)CC3)C2)nc1 [Example 3, 6-({1-[(4-cyclobutyl-1,4-diazepan-1-yl)carbonyl]azetidin-3-yl}oxy)-N-methylpyridine-3-carboxamide] | < 100
CNC(=O)c1ccc(OC2CN(C(=O)N3CCCN(C)CC3)C2)cn1 [Example 113, 5-({1-[(4-methyl-1,4-diazepan-1-yl)carbonyl]azetidin-3-yl}oxy)-N-methylpyridine-2-carboxamide] | 500 to 5000
CNC(=O)c1cnccc1OC1CN(C(=O)N2CCCN(C3CCC3)CC2)C1 [Example 85, 4-({1-[(4-cyclobutyl-1,4-diazepan-1-yl)carbonyl]azetidin-3-yl}oxy)-N-methylpyridine-3-carboxamide] | < 100
Cn1cc(-c2ccc(OC3CN(C(=O)N4CCCN(C5CCC5)CC4)C3)cc2)cn1 [Example 149, 1-cyclobutyl-4-({3-[4-(1-methyl-1H-pyrazol-4-yl)phenoxy]azetidin-1-yl}carbonyl)-1,4-diazepane] | < 100
COC(=O)C1CN(C(=O)N2CCCN(C3CCC3)CC2)C1 [Example 122, methyl 1-[(4-cyclobutyl-1,4-diazepan-1-yl)carbonyl]azetidine-3-carboxylate] | < 100
O=C(N1CCCN(C2CCC2)CC1)N1CC(Oc2ccc(C(F)(F)F)nc2)C1 [Example 94, 1-cyclobutyl-4-[(3-{[6-(trifluoromethyl)pyridin-3-yl]oxy}azetidin-1-yl)carbonyl]-1,4-diazepane] | < 100
CNC(=O)c1ccc(OC2CN(C(=O)N3CCCN(C4CCC4)CC3)C2)cc1F [Example 47, 4-({1-[(4-cyclobutyl-1,4-diazepan-1-yl)carbonyl]azetidin-3-yl}oxy)-2-fluoro-N-methylbenzamide] | < 100
O=C(N1CCCN(C2CCC2)CC1)N1CC(Oc2cccc(Cl)c2)C1 [Example 32, 1-{[3-(3-chlorophenoxy)azetidin-1-yl]carbonyl}-4-cyclobutyl-1,4-diazepane] | < 100
O=C(N1CCCN(C2CCC2)CC1)N1CC(Oc2ccc(N3CCCC3=O)cc2)C1 [Example 18, 1-[4-({1-[(4-cyclobutyl-1,4-diazepan-1-yl)carbonyl]azetidin-3-yl}oxy)phenyl]pyrrolidin-2-one] | < 100
O=C(N1CCCN(C2CCC2)CC1)N1CC(Oc2ccncc2Cl)C1 [Example 67] | < 100
O=C(N1CCCN(C2CCC2)CC1)N1CC(Oc2cncc(F)c2)C1 [Example 45, 1-cyclobutyl-4-({3-[(5-fluoropyridin-3-yl)oxy]azetidin-1-yl}carbonyl)-1,4-diazepane] | < 100
CCc1cnc(OC2CN(C(=O)N3CCCN(C4CCC4)CC3)C2)nc1 [Example 162, 1-cyclobutyl-4-({3-[(5-ethylpyrimidin-2-yl)oxy]azetidin-1-yl}carbonyl)-1,4-diazepane] | 500 to 5000
N#Cc1ccc(OC2CN(C(=O)N3CCN(C4CCC4)CC3)C2)cc1 [Example 40, 4-({1-[(4-cyclobutylpiperazin-1-yl)carbonyl]azetidin-3-yl}oxy)benzonitrile] | < 100
O=C(N1CCCN(C2CCC2)CC1)N1CC(CO)C1 [Example 134, {1-[(4-cyclobutyl-1,4-diazepan-1-yl)carbonyl]azetidin-3-yl}methanol] | < 100
NC(=O)c1cc(OC2CN(C(=O)N3CCCN(C4CCC4)CC3)C2)ccn1 [Example 72, 4-({1-[(4-cyclobutyl-1,4-diazepan-1-yl)carbonyl]azetidin-3-yl}oxy)pyridine-2-carboxamide] | < 100
O=C(N1CCCN(C2CCC2)CC1)N1CC(Oc2ccnc3ccccc23)C1 [Example 68, 4-({1-[(4-cyclobutyl-1,4-diazepan-1-yl)carbonyl]azetidin-3-yl}oxy)quinoline] | < 100
CN(C(=O)C1CCCCC1)C1CN(C(=O)N2CCCN(C3CCC3)CC2)C1 [Example 144, N-{1-[(4-cyclobutyl-1,4-diazepan-1-yl)carbonyl]azetidin-3-yl}-N-methylcyclohexanecarboxamide] | < 100
